Tests used:
[1] = Antihyperglycemic activity in mouse 3T3L1 cells assessed as stimulation of glucose consumption at 2 uM after 36 hrs by glucose oxidase assay in presence of high glucose condition relative to control; type: functional, 3T3-L1
HepG2 [2] = experiment: Antihyperglycemic activity in human HepG2 cells assessed as stimulation of glucose consumption at 2 uM after 36 hrs by glucose oxidase assay in presence of high glucose condition relative to control; type: functional
[3] = Cytotoxicity against mouse 3T3L1 cells assessed as cell viability up to 30 uM by MTT assay; type: cell-based; conditions: 3t3-l1
HepG2 [4] = experiment: Cytotoxicity against human HepG2 cells assessed as cell viability up to 30 uM by MTT assay; type: cell-based

Row | Structure (SMILES) | fold change (FC) [1] | fold change (FC) (HepG2 [2]) | Activity [3] | Activity (HepG2 [4])
1 | COc1ccc(/C=C/C(=O)NCCc2ccc(O[C@@H]3O[C@@H](C)[C@H](O)[C@@H](O[C@@H]4O[C@H](CO)[C@@H](O)[C@H](O)[C@H]4O)[C@H]3O[C@@H]3O[C@H](CO)[C@@H](O)[C@H](O)[C@H]3O)cc2)cc1 | 2.5 | 2.2 | Non-toxic | Non-toxic
2 | COc1ccc(/C=C/C(=O)NCCc2ccc(O[C@@H]3O[C@@H](C)[C@H](OC(C)=O)[C@@H](O[C@@H]4O[C@H](CO)[C@@H](O)[C@H](O)[C@H]4O)[C@H]3O[C@@H]3O[C@H](CO)[C@@H](O)[C@H](O)[C@H]3O)cc2)cc1 | 2.1 | 2.1 | Non-toxic | Non-toxic
3 | COc1ccc(/C=C/C(=O)NCCc2ccc(O[C@@H]3O[C@@H](C)[C@H](OC(C)=O)[C@@H](O[C@@H]4O[C@H](CO)[C@@H](O)[C@H](O)[C@H]4O)[C@H]3O[C@@H]3O[C@H](COC(C)=O)[C@@H](O)[C@H](O)[C@H]3O)cc2)cc1 | 1.6 | 1.7 | Non-toxic | Non-toxic
4 | COc1ccc(/C=C/C(=O)NCCc2ccc(O[C@@H]3O[C@@H](C)[C@H](OC(C)=O)[C@@H](O[C@@H]4O[C@H](COC(C)=O)[C@@H](O)[C@H](O)[C@H]4O)[C@H]3O[C@@H]3O[C@H](COC(C)=O)[C@@H](O)[C@H](O)[C@H]3O)cc2)cc1 | 1.6 | 1.7 | Non-toxic | Non-toxic
5 | COc1ccc(/C=C\C(=O)NCCc2ccc(O[C@@H]3O[C@@H](C)[C@H](O)[C@@H](O[C@@H]4O[C@H](CO)[C@@H](O)[C@H](O)[C@H]4O)[C@H]3O[C@@H]3O[C@H](CO)[C@@H](O)[C@H](O)[C@H]3O)cc2)cc1 | 1.6 | 1.7 | Non-toxic | Non-toxic
6 | COc1ccc(/C=C\C(=O)NCCc2ccc(O[C@@H]3O[C@@H](C)[C@H](OC(C)=O)[C@@H](O[C@@H]4O[C@H](CO)[C@@H](O)[C@H](O)[C@H]4O)[C@H]3O[C@@H]3O[C@H](CO)[C@@H](O)[C@H](O)[C@H]3O)cc2)cc1 | 2.3 | 2.2 | Non-toxic | Non-toxic
7 | COc1ccc(/C=C\C(=O)NCCc2ccc(O[C@@H]3O[C@@H](C)[C@H](OC(C)=O)[C@@H](O[C@@H]4O[C@H](CO)[C@@H](O)[C@H](O)[C@H]4O)[C@H]3O[C@@H]3O[C@H](COC(C)=O)[C@@H](O)[C@H](O)[C@H]3O)cc2)cc1 | 1.6 | 1.7 | Non-toxic | Non-toxic
8 | COc1ccc(/C=C\C(=O)NCCc2ccc(O[C@@H]3O[C@@H](C)[C@H](OC(C)=O)[C@@H](O[C@@H]4O[C@H](COC(C)=O)[C@@H](O)[C@H](O)[C@H]4O)[C@H]3O[C@@H]3O[C@H](COC(C)=O)[C@@H](O)[C@H](O)[C@H]3O)cc2)cc1 | 1.6 | 1.7 | Non-toxic | Non-toxic
